{"source": "patent US11007250B2", "about": "“Methods and kits for treating pain” (Duke University, priority 2017, dated 2021)", "key": {"[1]": {"tested_on": "naive mice", "assay": "Basal pain in naive mice (von Frey test, spontaneous pain)", "type": "in vivo, mouse", "settings": "RMP1-14 5 μg, Nivolumab 10 μg"}, "[2]": {"tested_on": "DRG neurons and sciatic nerve fibers", "assay": "Nivolumab binding in mouse DRG and sciatic nerve sections", "method": "FIG. 10 (Supp. FIG. 2). […] Human IgG included as a control. *P<0.05, vs. human IgG/PD-L1, repeated measures Two-Way ANOVA, n=4 mice/group. Arrows indicate drug injections. Human IgG or monoclonal antibody injected 30 min prior to injection of PD-L1. BL, baseline. […] Arrows indicate nerve fibers. Data are mean s.e.m.\nImmunohistochemistry in mouse and human tissues and quantification. After appropriate survival times, mice were deeply anesthetized with isoflurane and perfused through the ascending aorta with PBS, followed by 4% paraformaldehyde. After the perfusion, the L4-L5 spinal cord segments, L4-L5 DRGs, sciatic nerves, and melanoma tissues were removed and postfixed in the same fixative overnight. Fresh human DRGs (L4-L5) of 4 non-diseased donors from NDRI (National Disease Research Interchange) (Xu, Z Z, et al. 2015) and the attached spinal nerves were immediately fixed upon delivery in fresh 4% paraformaldehyde overnight. Spinal cord, DRG, and nerve tissue sections (10 or 14 μm) and free-floating spinal cord and skin sections (30 μm) were cut in a cryostat. […] The stained sections were examined with a Nikon fluorescence microscope, and images were captured with a CCD Spot camera. […]"}, "[3]": {"tested_on": "small-diameter neurons of whole-mount DRG", "assay": "Whole-cell patch clamp recordings in whole mount DRGs ex vivo", "type": "cell-based, mouse", "settings": "WT whole mount DRG; sPD-1 30 ng/ml, Nivolumab 300 ng/ml", "method": "Whole-cell patch clamp recordings in whole mount DRGs of mice ex vivo. L4-L5 DRGs were carefully removed 4 days after sham surgery or CCI surgery and placed in cold oxygenated ACSF. The connective tissue was gently removed under a microscope and the ganglia were digested with a mixture of 0.4 mg/mL trypsin (Sigma) and 1.0 mg/ml type-A collagenase (Sigma) for 30 min at 37° C. The intact ganglia were then incubated in ACSF oxygenated with 95% O2 and 5% CO2 at 28° C. for at least 1 h before transferring them to the recording chamber. DRG neurons were visualized with a 40× water-immersion objective using a BX51WI microscope (Olympus). Whole-cell current and voltage recordings were acquired with an Axon700B amplifier. Patch pipettes (4-7 MO) were pulled from borosilicate glass capillaries on P-97 puller. The recording chamber (300 μl) was continuously superfused (3-4 ml/min). Series resistance was compensated for (>80%), and leak subtraction was performed. The pipette solution contained (in mM): 140 KCl, 2 MgCl2, 10 Hepes, 2 Mg-ATP, pH 7.4. Osmolarity was adjusted to 290-300 mOsm. Data was acquired with a Digidata 1322A acquisition system (molecular devices) using pCLAMP 9.0 software. Signals were low-pass filtered at 5 kHz, sampled at 10 kHz and analyzed offline."}, "[4]": {"tested_on": "mice", "assay": "Tail-flick and hot-plate tests of morphine antinociception", "type": "in vivo, mouse", "method": "Tail-flick test. All animals were habituated to testing environment for at least 2 days before baseline testing. Mice were gently held by a hand with a terry glove and with tails exposed. The distal 3 cm of the tail was immersed into the 50° C. hot water. The tail-flick latency was the time required for a mouse to flick or remove its tail out of the water. A maximum cut-off value of 15 seconds was set to avoid thermal injury. Tail-flick latency was determined both before and after drug injection. Data are expressed as the maximum possible effect (MPE) calculated as MPE (%)=100×[(postdrug response baseline response)/(cutoff response−baseline response)]. The MPE (%) data from each animal were converted to area under the curve (AUC).\nHot-plate test. All animals were habituated to testing environment for at least 2 days before baseline testing. […] A maximum cut-off value of 40 seconds was set to avoid tissue injury. Data are expressed as the maximum possible effect (MPE) calculated as MPE (%)=100×[(postdrug response−baseline response)/(cutoff response−baseline response)]. The MPE (%) data from each animal were converted to area under the curve (AUC)."}}}
{"substance": "Nivolumab: FDA-approved fully humanized IgG4 monoclonal anti-PD-1 antibody, Bristol-Myers Squibb", "values": [{"measurement": "effect on PD-L1's analgesic effects", "setting": "[1]; antibody i.pl. 30 min prior to PD-L1 (5 μg, i.pl.)", "value": "blocked"}, {"measurement": "duration of mechanical allodynia in naive mice", "setting": "[1]; i.pl., sPD-1 5 μg", "value": 5, "unit": "h"}, {"measurement": "mechanical allodynia in naive mice", "setting": "[1]; i.pl., sPD-1 5 μg", "value": "marked mechanical allodynia"}, {"measurement": "binding in Pd1 knockout mice", "setting": "[2]; Pd1−/− mice", "value": "absent"}, {"measurement": "binding in wild-type (WT) mouse tissue", "setting": "[2]; WT mice", "value": "binding on DRG neurons and sciatic nerve fibers"}, {"measurement": "firing rate of action potentials", "setting": "[3]", "value": "increased the firing rate"}, {"measurement": "analgesic effect of morphine after Nivolumab", "setting": "[4]; Nivolumab 10 mg/kg i.v. 30 min before morphine 10 mg/kg s.c.", "value": "reduced analgesic effect"}, {"measurement": "pain sensitivity, given with saline", "setting": "[4]; Nivolumab 10 mg/kg i.v. 30 min before s.c. saline", "value": "greater sensitivity to pain"}]}
